From patent publication US10793568B2, “Hormone receptor modulators for treating metabolic conditions and disorders” (ARDELYX, INC., priority 2016, dated 2020)

What was measured:
[1] = molecular target: ligand binding domain of human FXR (Homo sapiens (Human), UniProt Q96RI1); assay: FXR ligand binding assay (LanthaScreen TR-FRET, SRC2-2 peptide recruitment); details: for pEC50: -log EC50, concentration required to produce 50% activation; for Emax / % Efficacy: extent of activation relative to GW4064; for Emax: read-out: % Efficacy
Sequence of ligand binding domain of human FXR (Q96RI1 262-486): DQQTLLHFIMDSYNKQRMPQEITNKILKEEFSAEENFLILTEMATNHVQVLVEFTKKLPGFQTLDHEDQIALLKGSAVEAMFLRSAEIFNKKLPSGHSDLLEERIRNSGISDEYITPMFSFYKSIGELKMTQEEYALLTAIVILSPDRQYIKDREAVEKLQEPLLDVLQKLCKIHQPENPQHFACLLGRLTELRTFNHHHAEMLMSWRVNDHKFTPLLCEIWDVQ

[2] = molecular target: human Farnesoid X receptor ligand-binding domain/Gal4 DNA binding domain chimera (Homo sapiens (Human), UniProt Q96RI1); assay: Cell-based assay of FXR activation (FXR-UAS-bla HEK 293T beta-lactamase reporter); details: cellular FXR beta-lactamase reporter assay; for Emax: HEK-293T, read-out: % Efficacy; for Emax / % Efficacy: extent of activation relative to GW4064; for EC50 / pEC50: FXR-UAS-bla HEK 293T cells, 16 h, pEC50 = -log EC50
Sequence of human Farnesoid X receptor ligand-binding domain/Gal4 DNA binding domain chimera (Q96RI1 262-486, change not shown): as the sequence (Q96RI1 262-486) above
Sequence of human Farnesoid X receptor ligand-binding domain/Gal4 DNA binding domain chimera (P04386 1-147 partner): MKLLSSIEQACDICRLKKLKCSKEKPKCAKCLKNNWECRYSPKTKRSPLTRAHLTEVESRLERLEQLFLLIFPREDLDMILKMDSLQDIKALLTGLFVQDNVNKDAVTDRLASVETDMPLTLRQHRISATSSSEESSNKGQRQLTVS
How it was run: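 HEK 293T cells stably expressing a Gal4-fused human FXR LBD and a UAS-driven beta-lactamase reporter were incubated with serially diluted compounds for 16 h at 37 °C in phenol red-free DMEM with 2% charcoal-stripped FBS. CCF4 FRET read-out: excitation 409 nm, emission 447 nm. pEC50 comes from a 3-parameter logistic fit, and efficacy is given as % of GW4064.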

Work on O=C(O)c1cc([C@H]2CCOC2)c2nc(N3C[C@@H]4C[C@H]3C[C@H]4OCc3c(-c4c(Cl)cccc4Cl)noc3C3CC3)sc2c1 [Compound I-253, 2-[(1S,4S,5R)-5-{[5-cyclopropyl-3-(2,6-dichlorophenyl)-1,2-oxazol-4-yl]methoxy}-2-azabicyclo[2.2.1]heptan-2-yl]-4-[(3R)-oxolan-3-yl]-1,3-benzothiazole-6-carboxylic Acid] yielded a pEC50 [1] of 8.6, an Emax [1] of 140% and an Emax [2] of 107%. For the same compound, the EC50 [2] was 0.158 nM.
In the case of O=C(O)c1cc(C2CCOCC2)c2nc(N3C[C@@H]4C[C@H]3C[C@H]4OCc3c(-c4c(Cl)cccc4Cl)noc3C3CC3)sc2c1 [Compound I-254, 2-[(1S,4S,5R)-5-{[5-cyclopropyl-3-(2,6-dichlorophenyl)-1,2-oxazol-4-yl]methoxy}-2-azabicyclo[2.2.1]heptan-2-yl]-4-(oxan-4-yl)-1,3-benzothiazole-6-carboxylic Acid], the pEC50 [1] is reported as 9, the Emax [1] is reported as 143% and the Emax [2] is reported as 106%. For the same compound, the EC50 [2] was 0.316 nM.
O=C(O)c1cc([C@H]2C[C@H]3CC[C@@H](C2)O3)c2nc(N3C[C@@H]4C[C@H]3C[C@H]4OCc3c(-c4c(Cl)cccc4Cl)noc3C3CC3)sc2c1 [Compound I-255, 2-[(1S,4S,5R)-5-{[5-cyclopropyl-3-(2,6-dichlorophenyl)-1,2-oxazol-4-yl]methoxy}-2-azabicyclo[2.2.1]heptan-2-yl]-4-[(1R,3R,5S)-8-oxabicyclo[3.2.1]octan-3-yl]-1,3-benzothiazole-6-carboxylic Acid] was tested, and the pEC50 [1] was 8.4, the “% Efficacy” value [1] was 150% and the pEC50 [2] was 9.3. The “% Efficacy” value [2] was 104%.
In the case of O=C(O)c1cc([C@@H]2C[C@H]3CC[C@@H](C2)O3)c2nc(N3C[C@@H]4C[C@H]3C[C@H]4OCc3c(-c4c(Cl)cccc4Cl)noc3C3CC3)sc2c1 [Compound I-256, 2-[(1S,4S,5R)-5-{[5-cyclopropyl-3-(2,6-dichlorophenyl)-1,2-oxazol-4-yl]methoxy}-2-azabicyclo[2.2.1]heptan-2-yl]-4-[(1R,3S,5S)-8-oxabicyclo[3.2.1]octan-3-yl]-1,3-benzothiazole-6-carboxylic Acid], the pEC50 [1] is reported as 8.4, the “% Efficacy” value [1] is reported as 157% and the pEC50 [2] is reported as 9.7. The “% Efficacy” value [2] was 107%.
With O=C(O)c1cc(C2CC3(CCOCC3)C2)c2nc(N3C[C@@H]4C[C@H]3C[C@H]4OCc3c(-c4c(Cl)cccc4Cl)noc3C3CC3)sc2c1 [Compound I-257, 2-[(1S,4S,5R)-5-{[5-cyclopropyl-3-(2,6-dichlorophenyl)-1,2-oxazol-4-yl]methoxy}-2-azabicyclo[2.2.1]heptan-2-yl]-4-{7-oxaspiro[3.5]nonan-2-yl}-1,3-benzothiazole-6-carboxylic Acid] the pEC50 [1] was 8.6, the Emax [1] was 148% and the Emax [2] was 108%. For the same compound, the EC50 [2] was 0.1 nM.
For O=C(O)c1cc(C2CCCOCC2)c2nc(N3C[C@@H]4C[C@H]3C[C@H]4OCc3c(-c4c(Cl)cccc4Cl)noc3C3CC3)sc2c1 (stereo partly drawn) [Compound I-258, 2-[(1S,4S,5R)-5-{[5-cyclopropyl-3-(2,6-dichlorophenyl)-1,2-oxazol-4-yl]methoxy}-2-azabicyclo[2.2.1]heptan-2-yl]-4-(oxepan-4-yl)-1,3-benzothiazole-6-carboxylic Acid], the pEC50 [1] was 8.6, the Emax [1] was 146% and the Emax [2] was 106%. The EC50 [2] was 0.126 nM.
O=C(O)c1cc(OC2CC2)c2nc(N3C[C@@H]4C[C@H]3C[C@H]4OCc3c(-c4c(Cl)cccc4Cl)noc3C3CC3)sc2c1 [Compound I-259, 4-cyclopropoxy-2-[(1S,4S,5R)-5-{[5-cyclopropyl-3-(2,6-dichlorophenyl)-1,2-oxazol-4-yl]methoxy}-2-azabicyclo[2.2.1]heptan-2-yl]-1,3-benzothiazole-6-carboxylic Acid] was tested, and the pEC50 [1] was 8.5, the Emax [1] was 124% and the Emax [2] was 114%. It also gave an EC50 [2] of 0.1 nM.
O=C(O)c1cc(O[C@H]2CCOC2)c2nc(N3C[C@@H]4C[C@H]3C[C@H]4OCc3c(-c4c(Cl)cccc4Cl)noc3C3CC3)sc2c1 [Compound I-260, 2-[(1S,4S,5R)-5-{[5-cyclopropyl-3-(2,6-dichlorophenyl)-1,2-oxazol-4-yl]methoxy}-2-azabicyclo[2.2.1]heptan-2-yl]-4-[(3S)-oxolan-3-yloxy]-1,3-benzothiazole-6-carboxylic Acid] gave a pEC50 [1] of 8.8, an Emax [1] of 148% and an Emax [2] of 103%. It also gave an EC50 [2] of 0.398 nM.
O=C(O)c1cc(O[C@@H]2CCOC2)c2nc(N3C[C@@H]4C[C@H]3C[C@H]4OCc3c(-c4c(Cl)cccc4Cl)noc3C3CC3)sc2c1 [Compound I-261, 2-[(1S,4S,5R)-5-{[5-cyclopropyl-3-(2,6-dichlorophenyl)-1,2-oxazol-4-yl]methoxy}-2-azabicyclo[2.2.1]heptan-2-yl]-4-[(3R)-oxolan-3-yloxy]-1,3-benzothiazole-6-carboxylic Acid] was tested, and the pEC50 [1] was 8.6, the Emax [1] was 161% and the Emax [2] was 110%. For the same compound, the EC50 [2] was 0.398 nM.
Compound Cc1cc(C(=O)O)cc2sc(N3C[C@@H]4C[C@H]3C[C@H]4OCc3c(-c4c(F)cccc4Cl)noc3C3CC3)nc12 [Compound I-262, 2-[(1S,4S,5R)-5-{[3-(2-chloro-6-fluorophenyl)-5-cyclopropyl-1,2-oxazol-4-yl]methoxy}-2-azabicyclo[2.2.1]heptan-2-yl]-4-methyl-1,3-benzothiazole-6-carboxylic Acid] has a pEC50 [1] of 8.6, an Emax [1] of 144% and an Emax [2] of 114%. For the same compound, the EC50 [2] was 2 nM.
Work on O=C(O)c1cc(OC2CC2)c2nc(N3C[C@@H]4C[C@H]3C[C@H]4OCc3c(-c4c(F)cccc4Cl)noc3C3CC3)sc2c1 [Compound I-263, 2-((1S,4S,5R)-5-((3-(2-chloro-6-fluorophenyl)-5-cyclopropylisoxazol-4-yl)methoxy)-2-azabicyclo[2.2.1]heptan-2-yl)-4-cyclopropoxybenzo[d]thiazole-6-carboxylic acid] yielded a pEC50 [1] of 8.6, an Emax [1] of 150% and an Emax [2] of 109%. For the same compound, the EC50 [2] was 0.1 nM.
With O=C(O)c1cc(C2CCOCC2)c2nc(N3C[C@@H]4C[C@H]3C[C@H]4OCc3c(-c4c(F)cccc4Cl)noc3C3CC3)sc2c1 [Compound I-264, 2-((1S,4S,5R)-5-((3-(2-chloro-6-fluorophenyl)-5-cyclopropylisoxazol-4-yl)methoxy)-2-azabicyclo[2.2.1]heptan-2-yl)-4-(tetrahydro-2H-pyran-4-yl)benzo[d]thiazole-6-carboxylic acid] the pEC50 [1] was 8.5, the Emax [1] was 142% and the Emax [2] was 105%. It also gave an EC50 [2] of 0.631 nM.
O=C(O)c1cc([C@H]2CCOC2)c2nc(N3C[C@@H]4C[C@H]3C[C@H]4OCc3c(-c4c(F)cccc4Cl)noc3C3CC3)sc2c1 [Compound I-265] showed a pEC50 [1] of 8.4, an Emax [1] of 146% and an Emax [2] of 110%. The EC50 [2] was 0.501 nM.
For O=C(O)c1cc([C@@H]2CCOC2)c2nc(N3C[C@@H]4C[C@H]3C[C@H]4OCc3c(-c4c(F)cccc4Cl)noc3C3CC3)sc2c1 [Compound I-266, 2-((1S,4S,5R)-5-((3-(2-chloro-6-fluorophenyl)-5-cyclopropylisoxazol-4-yl)methoxy)-2-azabicyclo[2.2.1]heptan-2-yl)-4-((S)-tetrahydrofuran-3-yl)benzo[d]thiazole-6-carboxylic Acid], the pEC50 [1] was 8.6, the Emax [1] was 139% and the Emax [2] was 105%. For the same compound, the EC50 [2] was 0.251 nM.
O=C(O)c1cc(O[C@H]2CCOC2)c2nc(N3C[C@@H]4C[C@H]3C[C@H]4OCc3c(-c4c(F)cccc4Cl)noc3C3CC3)sc2c1 [Compound I-267, 2-((1S,4S,5R)-5-((3-(2-chloro-6-fluorophenyl)-5-cyclopropylisoxazol-4-yl)methoxy)-2-azabicyclo[2.2.1]heptan-2-yl)-4-(((S)-tetrahydrofuran-3-yl)oxy)benzo[d]thiazole-6-carboxylic acid] was tested, and the pEC50 [1] was 8.6, the Emax [1] was 146% and the Emax [2] was 102%. The EC50 [2] was 1 nM.
O=C(O)c1cc(O[C@@H]2CCOC2)c2nc(N3C[C@@H]4C[C@H]3C[C@H]4OCc3c(-c4c(F)cccc4Cl)noc3C3CC3)sc2c1 [Compound I-268, 2-((1S,4S,5R)-5-((3-(2-chloro-6-fluorophenyl)-5-cyclopropylisoxazol-4-yl)methoxy)-2-azabicyclo[2.2.1]heptan-2-yl)-4-(((R)-tetrahydrofuran-3-yl)oxy)benzo[d]thiazole-6-carboxylic acid] gave a pEC50 [1] of 8.6, an Emax [1] of 146% and an Emax [2] of 102%. It also gave an EC50 [2] of 1.58 nM.
Cc1cccc(Cl)c1-c1noc(C2CC2)c1CO[C@@H]1C[C@@H]2C[C@H]1CN2c1nc2c(C)cc(C(=O)O)cc2s1 [Compound I-269] gave a pEC50 [1] of 8.5, an Emax [1] of 137% and an Emax [2] of 106%. For the same compound, the EC50 [2] was 0.631 nM.
Cc1cccc(Cl)c1-c1noc(C2CC2)c1CO[C@@H]1C[C@@H]2C[C@H]1CN2c1nc2c(OC3CC3)cc(C(=O)O)cc2s1 [Compound I-270, 2-((1S,4S,5R)-5-((3-(2-chloro-6-methylphenyl)-5-cyclopropylisoxazol-4-yl)methoxy)-2-azabicyclo[2.2.1]heptan-2-yl)-4-cyclopropoxybenzo[d]thiazole-6-carboxylic acid] was tested, and the pEC50 [1] was 8.7, the Emax [1] was 150% and the Emax [2] was 106%. The EC50 [2] was 0.1 nM.
Work on Cc1cccc(Cl)c1-c1noc(C2CC2)c1CO[C@@H]1C[C@@H]2C[C@H]1CN2c1nc2c(C3CCOCC3)cc(C(=O)O)cc2s1 [Compound I-271, 2-((1S,4S,5R)-5-((3-(2-chloro-6-methylphenyl)-5-cyclopropylisoxazol-4-yl)methoxy)-2-azabicyclo[2.2.1]heptan-2-yl)-4-(tetrahydro-2H-pyran-4-yl)benzo[d]thiazole-6-carboxylic acid] yielded a pEC50 [1] of 8.6, an Emax [1] of 132% and an Emax [2] of 108%. For the same compound, the EC50 [2] was 0.398 nM.
